Laboratory results from patent US7879862B2, “Pyrazolo[1,5-alpha]pyrimidinyl derivatives useful as corticotropin-releasing factor (CRF) receptor antagonists” (SmithKline Beecham (Cork) Limited, priority 2004, dated 2011).
Where two headings read alike, the source gives them in different places.

Biological target: T1, human CRF receptors (Homo sapiens, UniProt P34998)
T1 construct: expressed in transfected cells
T1 sequence (P34998 24-415): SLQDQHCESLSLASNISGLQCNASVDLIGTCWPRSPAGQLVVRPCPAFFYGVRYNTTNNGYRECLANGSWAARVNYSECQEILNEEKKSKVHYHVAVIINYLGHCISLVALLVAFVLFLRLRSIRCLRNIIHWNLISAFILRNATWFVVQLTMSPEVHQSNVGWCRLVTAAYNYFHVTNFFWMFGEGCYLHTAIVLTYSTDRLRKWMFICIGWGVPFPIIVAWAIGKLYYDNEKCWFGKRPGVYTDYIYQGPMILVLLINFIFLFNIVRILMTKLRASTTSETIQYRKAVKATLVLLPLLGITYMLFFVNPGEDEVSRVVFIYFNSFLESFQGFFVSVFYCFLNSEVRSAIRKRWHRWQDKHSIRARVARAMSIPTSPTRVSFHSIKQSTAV
Assay: CRF receptor binding activity (radioligand displacement, Example 25)
Text: The effectiveness of a compound as a CRF receptor antagonist may be determined by various assay methods. […] CRF receptor affinity may be determined by binding studies that measure the ability of a compound to inhibit the binding of a radiolabeled CRF (e.g., [^125I]tyrosine-CFR) to its receptor (e.g., receptors prepared from rat cerebral cortex membranes). The radioligand binding assay described by DeSouza et al. (supra, 1987) provides an assay for determining a compound's affinity for the CRF receptor.
[formula] where L=radioligand and KD=affinity of radioligand for receptor (Cheng and Prusoff, Biochem. Pharmacol. 22:3099, 1973).
By utilizing radiolabeled CRF ligands, the assay may be used to evaluate the binding activity of the compounds of the present invention with any CRF receptor subtype.
Briefly, the binding assay involves the displacement of a radiolabeled CRF ligand from the CRF receptor. More specifically, the binding assay is performed in 96-well assay plates using 1-10 μg cell membranes from cells stably transfected with human CRF receptors. […] The mixture is incubated for 2 hours at 22° C. followed by separation of the bound and free radioligand by rapid filtration over glass fiber filters. Following three washes, the filters are dried and radioactivity (Auger electrons from ^125I) is counted using a scintillation counter. All radioligand binding data may be analyzed using the non-linear least-squares curve-fitting programs Prism (GraphPad Software Inc) or XLfit (ID Business Solutions Ltd).

[1] = displacement of [125I] tyrosine-sauvagine from membranes of cells stably transfected with human CRF receptors, less than 0.10 μM (i.e., 100 nM), read-out: Ki (CRF receptor binding affinity)

SMILES	Ki [nM]	Ki [1] [nM]
CCC(Nc1cc(C)nc2c(-c3ccc(OC)cc3OC)c(C)nn12)c1nc(C)no1 (stereo not drawn) [Example 11-20, [3-(2,4-Dimethoxy-phenyl)-2,5-dimethyl-pyrazolo[1,5-a]pyrimidin-7-yl]-[1-(3-methyl-[1,2,4]oxadiazol-5-yl)-propyl]-amine]	< 100	–
COc1ccc(-c2c(C)nn3c(N[C@H](C)Cc4noc(C)n4)cc(C)nc23)c(C)c1 [Example 17-1, [3-(4-Methoxy-2-methyl-phenyl)-2,5-dimethyl-pyrazolo[1,5-a]pyrimidin-7-yl]-[(R)-1-methyl-2-(5-methyl-[1,2,4]oxadiazol-3-yl)-ethyl]-amine]	< 100	–
COc1ccc(-c2c(C)nn3c(N[C@@H](Cc4nc(C)no4)C(F)(F)F)cc(C)nc23)c(OC)c1 [Example 13-8, [3-(2,4-Dimethoxy-phenyl)-2,5-dimethyl-pyrazolo[1,5-a]pyrimidin-7-yl]-[2,2,2-trifluoro-(S)-1-(3-methyl-[1,2,4]oxadiazol-5-ylmethyl)-ethyl]-amine]	–	< 100
CCc1noc(C[C@@H](C)Nc2cc(C)nc3c(-c4ccc(OC)cc4C)c(C)nn23)n1 [Example 11-17, [2-(3-Ethyl-[1,2,4]oxadiazol-5-yl)-(R)-1-methyl-ethyl]-[3-(4-methoxy-2-methyl-phenyl)-2,5-dimethyl-pyrazolo[1,5-a]pyrimidin-7-yl]-amine]	–	< 100
COc1ccc(-c2c(C)nn3c(N4CCCCC4Cc4nc(C)no4)cc(C)nc23)c(C)c1 (stereo not drawn) [Example 20-2, 3-(4-Methoxy-2-methyl-phenyl)-2,5-dimethyl-7-[2-(3-methyl-[1,2,4]oxadiazol-5-ylmethyl)-piperidin-1-yl]-pyrazolo[1,5-a]pyrimidine]	–	< 100
COc1ccc(-c2c(C)nn3c(NC(Cc4ccccc4)c4nc(C)no4)cc(C)nc23)c(C)c1 (stereo not drawn) [Example 11-3, [3-(4-Methoxy-2-methyl-phenyl)-2,5-dimethyl-pyrazolo[1,5-a]pyrimidin-7-yl]-[1-(3-methyl-[1,2,4]oxadiazol-5-yl)-2-phenyl-ethyl]-amine]	–	< 100
CCN(Cc1nc(C)no1)c1cc(C)nc2c(-c3ccc(OC)cc3C)c(C)nn12 [Example 20-1, Ethyl-[3-(4-methoxy-2-methyl-phenyl)-2,5-dimethyl-pyrazolo[1,5-a]pyrimidin-7-yl]-(3-methyl-[1,2,4]oxadiazol-5-ylmethyl)-amine]	< 100	–
COc1ccc(-c2c(C)nn3c(N[C@@H](Cc4noc(C)n4)C(F)(F)F)cc(C)nc23)c(C)c1 [Example 19-1, [3-(4-Methoxy-2-methyl-phenyl)-2,5-dimethyl-pyrazolo[1,5-a]pyrimidin-7-yl]-[(S)-2,2,2-trifluoro-1-(5-methyl-[1,2,4]oxadiazol-3-ylmethyl)-ethyl]-amine]	–	< 100
COc1ccc(-c2c(C)nn3c(NCc4nc(C)no4)cc(C)nc23)c(C)c1 [Example 11-6, [3-(4-Methoxy-2-methyl-phenyl)-2,5-dimethyl-pyrazolo[1,5-a]pyrimidin-7-yl]-(3-methyl-[1,2,4]oxadiazol-5-ylmethyl)-amine]	< 100	–
COc1ccc(-c2c(C)nn3c(N[C@H](C)Cc4nc(C5CC5)no4)cc(C)nc23)c(C)c1 [Example 11-9, [2-(3-Cyclopropyl-[1,2,4]oxadiazol-5-yl)-(R)-1-methyl-ethyl]-[3-(4-methoxy-2-methyl-phenyl)-2,5-dimethyl-pyrazolo[1,5-a]pyrimidin-7-yl]-amine]	–	< 100
COc1ccc(-c2c(C)nn3c(NC(C)Cc4nc(C)no4)cc(C)nc23)c(C)c1 (stereo not drawn) [Example 12-1, [3-(4-Methoxy-2-methyl-phenyl)-2,5-dimethyl-pyrazolo[1,5-a]pyrimidin-7-yl]-[1-methyl-2-(3-methyl-[1,2,4]oxadiazol-5-yl)-ethyl]-amine]	< 100	–
CCC(Nc1cc(C)nc2c(-c3ccc(C)cc3Cl)c(C)nn12)c1nc(C)no1 (stereo not drawn) [Example 24-6, [3-(2-Chloro-4-methyl-phenyl)-2,5-dimethyl-pyrazolo[1,5-a]pyrimidin-7-yl]-[1-(3-methyl-[1,2,4]oxadiazol-5-yl)-propyl]-amine]	–	< 100
